Assays:
[1] = test system: primary human dermal fibroblasts (HDF); assay: Primary human dermal fibroblast (HDF) proliferation assay (2D) with or without wound exudate; assay type: cell-based; conditions: for fibroblast proliferation in the absence of WE: FIG. 11, 2D fibroblast culture without WE (control); for HDF proliferation with wound exudate #78, plus PDGF / HDF proliferation with wound exudate #78: FIG. 15; for HDF proliferation with wound exudate #78, plus PDGF: compound + PDGF 20 ng/ml in medium + WE #78; for HDF proliferation with wound exudate #78: compound in medium + WE #78; for wound exudate-induced inhibition of fibroblast proliferation: FIG. 20, with wound exudate; for effect on PDGF-induced induction of proliferation in the absence of WE: with PDGF
Experimental: (§1) Primary human dermal fibroblasts (HDF) were purchased from CELLnTEC, Bern. They were routinely grown in Dulbecco's modified Eagle's medium (DMEM) containing 10% FCS, 2 mM glutamine, and 100 U/ml penicillin/100 μg/ml streptomycin. Media, antibiotics, and glutamine were bought from Lonza. The cells were used at passage 5-15. Cells were trypsinized and seeded at 5000 cells/well in 200 μl into the inner wells of 96-well plates. The outer wells were loaded with sterile water. The cells were allowed to adhere overnight and then incubated for 72 hours at 37° C. under the following conditions: graded compound concentrations or 20 ng/ml PDGF-BB (Tonbo Biosciences) in the absence or presence of different dilutions of sterile-filtered WE in medium. For control samples, 200 μl medium was added instead of specific stimuli. Alternatively, the cells were seeded into 384-well plates at 2500 cells/well directly together with test compounds or growth factors and WE or medium in a total volume of […].
(§2) At the end of the 72-hour incubation period, supernatants were removed for the determination of IL-1ß, and the cells were fixed with 4% paraformaldehyde (Morphisto) for 15 minutes at room temperature and washed 3 times with PBS. A control plate was fixed after the overnight adherence of the cells (day 1) to determine the starting cell number.
Total cellular protein was determined as a measure of cell number by staining the fixed cells with sulforhodamine B (SRB, Sigma). A 0.4% SRB solution in 1% acetic acid was added to the wells for 30 minutes. The wells were then washed with 1% acetic acid until the wash solution remained colorless. […] The average absorbance of the sample representing the day 1 starting cell number (for 96-well plates) was subtracted from the absorbance values of the WE-treated cells.
All experiments were carried out in triplicate for each sample and concentration, and means±standard deviation (SD) were used for the evaluation of the experiment. Results are expressed as percentage of control values for unstimulated cells.
(§3) Low molecular weight compounds (see list in Table 1) were dissolved in DMSO (Bioreagent for cell culture, Sigma) at 10 mM or 100 mM and diluted at least 1:1000 in medium for cellular assays (final DMSO concentration ≤0.1%).
(§4) Cells were incubated with compounds for 72 hours in proliferation assays and up to 8 days for FDM assay (refreshed after 4 days). When compounds were tested for their effect on WE stimulation, the incubation of cells with compounds was started and ended simultaneously with WE-incubation.

[2] = test system: primary human dermal fibroblasts (HDF); assay: Fibroblast-derived matrix (FDM) formation assay (3D) with wound exudate; assay type: cell-based; conditions: for 3D fibroblast culture (FDM formation), effect of PARP inhibitors: FIG. 7, WE from patient #78; for 3D fibroblast-derived matrix formation assay, activity: FIGS. 9 and 10
Experimental: HDF cells were seeded at 5000 cells/well on day −3 into 96-well tissue culture plates (1250 cells/well for 384-well plates), which had been pre-coated for 1 hour at 37° C. with 0.2% gelatin solution (Sigma). When the cells reached confluence (=day 0), a matrix promoting supplement (vitamin C: 2-phospho-L-ascorbic acid trisodium salt, 100 μg/ml; Sigma) was added together with test samples containing PDGF-BB, TGF-ß1 or graded concentrations of compounds −/+WE as described for the HDF proliferation assay. After 4 days, medium was replaced by fresh vitamin C—and stimulus—as well as compound-containing medium, maintaining the conditions initiated on day 0. TGF-ß1 and PDGF-BB were included as positive controls to promote FDM formation and cell growth, respectively. After a total incubation time of 8 days, FDM production was measured in fixed cultures via SRB staining and evaluated as described above. In some cases, the experiment was stopped and evaluated already on day 4.
as §3, §4

[3] = test system: IL-1ß secretion by primary human dermal fibroblasts; assay: IL-1ß secretion in the HDF proliferation assay with wound exudate (ELISA); assay type: cell-based; conditions: FIG. 20
Experimental: as §2
IL-1ß levels were determined with a commercial ELISA kit. The amount of IL-1ß contained in the wound exudate added to the cells was subtracted from the total IL-ß in the supernatants in order to determine the cytokine secreted by the cells.

PARP1 = PARP1 (Homo sapiens, UniProt P09874); conditions: cited from earlier work
PARP = conditions: cited from earlier work
[4] = test system: alpha-smooth muscle actin (α-SMA) in human dermal fibroblasts; assay: Immunolocalization of alpha-smooth muscle actin in 2D HDF culture; assay type: cell-based; conditions: FIG. 16; absence of wound exudate; TGF-ß 20 ng/ml
Experimental: as §1
After fixation with paraformaldehyde, the cells were incubated for 1 hour at room temperature with a monoclonal mouse-anti-human antibody against alpha-smooth muscle actin (α-SMA) from e-Bioscience, washed 3 times with PBS and developed with an Alexa Fluor-labelled donkey-anti-mouse IgG (Molecular Probes). […]

PARP1, sequence (P09874 whole entry, species assumed): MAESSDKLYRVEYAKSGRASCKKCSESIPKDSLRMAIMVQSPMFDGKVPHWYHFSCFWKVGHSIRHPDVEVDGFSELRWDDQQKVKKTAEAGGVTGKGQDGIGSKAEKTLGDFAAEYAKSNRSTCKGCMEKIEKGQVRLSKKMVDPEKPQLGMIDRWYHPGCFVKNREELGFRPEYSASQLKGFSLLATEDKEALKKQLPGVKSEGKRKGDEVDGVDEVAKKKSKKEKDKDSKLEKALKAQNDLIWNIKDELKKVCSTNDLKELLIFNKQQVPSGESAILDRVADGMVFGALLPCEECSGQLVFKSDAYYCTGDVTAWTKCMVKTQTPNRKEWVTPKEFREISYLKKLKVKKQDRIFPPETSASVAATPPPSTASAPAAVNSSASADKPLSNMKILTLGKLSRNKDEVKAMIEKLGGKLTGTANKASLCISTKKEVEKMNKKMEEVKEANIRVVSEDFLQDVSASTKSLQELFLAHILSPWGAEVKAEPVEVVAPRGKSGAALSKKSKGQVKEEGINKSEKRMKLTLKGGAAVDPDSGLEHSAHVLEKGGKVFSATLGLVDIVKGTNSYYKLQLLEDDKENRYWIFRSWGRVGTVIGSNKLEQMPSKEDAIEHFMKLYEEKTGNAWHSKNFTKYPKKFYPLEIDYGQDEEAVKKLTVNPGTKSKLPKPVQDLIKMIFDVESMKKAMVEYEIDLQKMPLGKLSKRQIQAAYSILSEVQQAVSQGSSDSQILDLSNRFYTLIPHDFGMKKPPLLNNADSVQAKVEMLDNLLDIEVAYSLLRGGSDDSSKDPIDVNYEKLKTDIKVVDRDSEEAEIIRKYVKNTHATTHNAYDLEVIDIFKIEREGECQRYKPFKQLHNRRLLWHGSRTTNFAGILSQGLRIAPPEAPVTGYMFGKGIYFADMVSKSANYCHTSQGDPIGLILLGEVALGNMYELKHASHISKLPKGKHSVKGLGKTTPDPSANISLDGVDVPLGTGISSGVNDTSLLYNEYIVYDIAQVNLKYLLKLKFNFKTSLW

Row | Molecule | 2D fibroblast culture (HDF proliferation), effect of PARP inhibitors ([1]; FIG. 8, WE from patient #78) | wound exudate-induced inhibition of fibroblast proliferation [1] | 3D fibroblast culture (FDM formation), effect of PARP inhibitors [2] | wound exudate-induced IL-1ß secretion [3] | 2D fibroblast culture (HDF proliferation), effect of PARP inhibitors ([1]; FIG. 9, WE from patient #43) | 2D fibroblast culture (HDF proliferation), effect of PARP inhibitors ([1]; FIG. 10, WE from patient #78) | other results
1 | O=C(c1cc(Cc2n[nH]c(=O)c3ccccc23)ccc1F)N1CCN(C(=O)C2CC2)CC1 [Olaparib] | strong and consistent positive effect | enhanced cell proliferation | strong and consistent positive effect | reducing IL-1ß secretion |  |  | fibroblast proliferation in the absence of WE [1]: either no effect on fibroblast proliferation in the absence of wound exudate, or only a marginal effect; HDF proliferation with wound exudate #78, plus PDGF [1]: even further enhanced by the addition of PDGF; HDF proliferation with wound exudate #78 [1]: dose-dependent increase of HDF proliferation; effect on PDGF-induced induction of proliferation in the absence of WE ([1]; no WE): either had no effect on PDGF-induced induction of proliferation or showed inhibition of the PDGF effect
2 | CN(C)Cc1ccc(-c2nc3cccc4c3n2CCNC4=O)cc1 [AG-14351] | only a very weak effect at a concentration of 10 μM | enhanced cell proliferation | only a very weak effect at a concentration of 10 μM | reducing IL-1ß secretion |  |  | inhibits PARP1 with an 1050 (PARP1): low nM range
3 | Oc1cccc2c(O)nccc12 [1,5-IQD, 1,5-Isoquinolinediol] |  |  |  |  | either inactive or exhibit a very weak activity | either inactive or exhibit a very weak activity | 3D fibroblast-derived matrix formation assay, activity [2]: either inactive or only weakly active
4 | NC(=O)c1cccc2cn(-c3ccc([C@@H]4CCCNC4)cc3)nc12 [niraparib] | does not show any activity | did not show any of these effects | does not show any activity | did not show any of these effects |  |  | inhibits PARP with an 1050 (PARP): low nM range
5 | COC1CCN(C(=O)c2cc(Cc3n[nH]c(=O)c4ccccc34)ccc2F)CC1 [AZD-2461] | strong and consistent positive effect | enhanced cell proliferation | strong and consistent positive effect | reducing IL-1ß secretion |  |  | fibroblast proliferation in the absence of WE [1]: either no effect on fibroblast proliferation in the absence of wound exudate, or only a marginal effect
6 | CNCc1ccc(-c2[nH]c3cc(F)cc4c3c2CCNC4=O)cc1 [Rucaparib] | strong and consistent positive effect | enhanced cell proliferation | strong and consistent positive effect | reducing IL-1ß secretion | strong and consistent positive effect | strong and consistent positive effect | fibroblast proliferation in the absence of WE [1]: either no effect on fibroblast proliferation in the absence of wound exudate, or only a marginal effect; HDF proliferation with wound exudate #78, plus PDGF [1]: even further enhanced by the addition of PDGF; HDF proliferation with wound exudate #78 [1]: dose-dependent increase of HDF proliferation; effect on PDGF-induced induction of proliferation in the absence of WE ([1]; no WE): either had no effect on PDGF-induced induction of proliferation or showed inhibition of the PDGF effect
7 | TGF-ß: Transforming growth factor beta |  |  |  |  |  |  | staining for myofibroblast marker alpha-smooth muscle actin (α-SMA) [4]: increases the staining for the myofibroblast marker alpha-smooth muscle actin (α-SMA)
8 | NC(=O)c1cccc(N)c1 [3-AB, 3-Aminobenzamide] |  | did not show any of these effects |  | did not show any of these effects | either inactive or exhibit a very weak activity | either inactive or exhibit a very weak activity | 3D fibroblast-derived matrix formation assay, activity [2]: either inactive or only weakly active
9 | CN(C)CC(=O)Nc1ccc2[nH]c(=O)c3ccccc3c2c1.Cl [PJ-34] |  |  |  |  | either inactive or exhibit a very weak activity | either inactive or exhibit a very weak activity | 2D fibroblast culture, PARP inhibitor effect ± dexamethasone ± Vit. C ([1]; FIG. 12, WE from patient #78): only a weak effect; 2D fibroblast culture, PARP inhibitor effect ± dexamethasone ± Vit. C ([1]; FIG. 13, WE from patient #43): only a weak effect; 3D fibroblast-derived matrix formation assay, activity [2]: either inactive or only weakly active
10 | 2-phospho-L-ascorbic acid trisodium salt [vitamin C] |  |  |  |  |  |  | 2D fibroblast culture, enhancement of PARP inhibitor compound effects by co-agent ([1]; FIG. 12, WE from patient #78, dexamethasone 3 nM, vitamin C 100 μg/ml): synergistically enhance the PARP inhibitor compound effects; 2D fibroblast culture, enhancement of PARP inhibitor compound effects by co-agent ([1]; FIG. 13, WE from patient #43): synergistically enhance the PARP inhibitor compound effects
11 | PDGF: Platelet-derived growth factor, protein growth factor (Tonbo Biosciences) (protein, UniProt P01127 82-190, looked up, PDGF-BB homodimer) Platelet-derived growth …: SLGSLTIAEPAMIAECKTRTEVFEISRRLIDRTNANFLVWPPCVEVQRCSGCCNNRNVQCRPTQVQLRPVQVRKIEIVRKKPIFKKATVTLEDHLACKCETVAAARPVT |  |  |  |  |  |  | HDF proliferation in the presence of WE #78 ([1]; FIG. 14, WE #78, veliparib 10 μM, talazoparib 1 μM, PDGF 20 ng/ml): has no effect; HDF proliferation in the absence of WE ([1]; FIG. 14, no WE, veliparib 10 μM, talazoparib 1 μM, PDGF 20 ng/ml): induces HDF proliferation; HDF proliferation with wound exudate #78 [1]: inactive

Source: patent US11638709B2, “Rucaparib, Talazoparib, Veliparib, Olaparib and AZD 2461 for treating impaired skin wound healing” (AKRIBES BIOMEDICAL GMBH, priority 2017, dated 2023)
